Measurements taken from patent publication US8604212B2, “Anti-shock agent comprising diaminotrifluoromethylpyridine derivative” (Ishihara Sangyo Kaisha, Ltd., priority 2009, dated 2013).

System: mouse models with septic shock, the onset of which was peritonitis triggered by the cecal puncture
Assay: Therapeutic effect on mouse models with septic shock, the onset of which was peritonitis triggered by the cecal puncture (viability test)
Assay type: in vivo
Settings: for surviving rate: female BALB/c mice
Source text: Therapeutic effects of N-(2-ethylsulfonylamino-5-trifluoromethyl-3-pyridyl)cylohexanecarboxamide sodium salt monohydrate (hereinafter referred to as compound 1) on mouse models with septic shock, the onset of which was peritonitis triggered by the cecal puncture, was examined.
The compound 1 was used as a drug formulation. The formulation composition (content per one vial) was as follows.
Age: 7 weeks old when purchased and 8 weeks old when tested
The mice were pre-bred for about a week after purchase and then subjected to a test at about 8 weeks old. Breeding in the entire breeding period was carried out in an isolator placed in a large animal room. Ten mice in each group were accommodated in a polycarbonate cage throughout the test period, and they were freely fed on commercially available complete feed pellet (MF, manufactured by O. B. S.) and tap water subjected to activated carbon filtration (with use of a feed water bottle) throughout the breeding period. From the mice, mice which were healthily grown during the pre-breeding period were selected. Mice were randomly selected from the above selected mice and delivered to the respective groups one by one in the order of the animal number. The animal number was put in the order of put into a cage after the grouping.
Preparation of the drug was carried out immediately before the induction operation, and administration was carried out by using the prepared liquid for administration. Japanese Pharmacopoeia 5% glucose was injected to a formulated product containing 100 mg of the compound 1 to completely dissolve the compound 1, and a liquid for administration at the maximum dose was prepared by diluting with Japanese Pharmacopoeia 5% glucose, and a liquid for administration at a medium dose and a liquid for administration at a low dose were prepared by stepwise dilution of the liquid for administration at the maximum dose with Japanese Pharmacopoeia 5% glucose. For the non-treated group, Japanese Pharmacopoeia 5% glucose as a medium alone was prepared. Immediately after the induction, 4 hours later, 8 hours later and 12 hours later, the liquid was repeatedly administered subcutaneously to the dorsal neck to maintain the blood concentration. The liquid was administered in a volume of 10 ml/kg for each group.
Mice were anesthetized with gas-oxygen-fluothane, and the corpus 8 mm from the cecal apex was ligated through an abdominal incision, one spot in the apex was punctured and transfixed with a 22 G needle, and after leakage of cecal contents was confirmed, the cecum was completely replaced in the abdomen and the abdomen was closed.
Viability test was carried out for 3 days from immediately after the induction, and the results were summarized every 24 hours.
Employing the non-treated group as a control, comparison among groups of a group given with 0.1 mg/kg of the compound 1, a group given with 1 mg/kg of the compound 1 and a group given with 10 mg/kg of the compound 1 was carried out.
Viability test results: animals which died in 0 to 24 hours were scored 1, animals which died in 24 to 48 hours were scored 2, animals which died in 48 to 72 hours were scored 3, and animals which survived 72 hours or more were scored 4, and the obtained data were used.
Comparison among groups was carried out by Shirley-Williams' multiple comparison test.

Compound: CCS(=O)(=O)Nc1ncc(C(F)(F)F)cc1NC(=O)C1CCCCC1.O.[Na] [Compound 1, N-(2-ethylsulfonylamino-5-trifluoromethyl-3-pyridyl)cylohexanecarboxamide sodium salt monohydrate]
- surviving rate (0.1 mg/kg x 4 times subcutaneous, 24 hr after induction of septic shock model): 20%
- surviving rate (0.1 mg/kg x 4 times subcutaneous, 48 hr after induction of septic shock model): 0%
- surviving rate (0.1 mg/kg x 4 times subcutaneous, 72 hr after induction of septic shock model): 0%
- surviving rate (1 mg/kg x 4 times subcutaneous, 24 hr after induction of septic shock model): 40%
- surviving rate (1 mg/kg x 4 times subcutaneous, 48 hr after induction of septic shock model): 10%
- surviving rate (1 mg/kg x 4 times subcutaneous, 72 hr after induction of septic shock model): 10%
- surviving rate (10 mg/kg x 4 times subcutaneous, 24 hr after induction of septic shock model): 90%
- surviving rate (10 mg/kg x 4 times subcutaneous, 48 hr after induction of septic shock model): 50%
- surviving rate (10 mg/kg x 4 times subcutaneous, 72 hr after induction of septic shock model): 50%
- improvement in the surviving rate versus non-treated group (Shirley-Williams' multiple comparison test) (administration of 10 mg/kg, P<0.001): improvement in the surviving rate with statical significance
